Activity calls are given as the source filed them. No cut-off for these calls is given here.
Assays:
[1] = test system: Rattus norvegicus; assay: Anticoagulant activity in Sprague-Dawley rat assessed as change in factor 10 content in blood at 0.25 mg/kg, po after 4 days (reference value: 60.6%+/-3.0 %); assay type: functional
[2] = test system: Rattus norvegicus; assay: Anticoagulant activity in Sprague-Dawley rat assessed as change in factor 7 content in blood at 2.5 mg/kg, po after 4 days (reference value: 400%+/-33.2%); assay type: functional
[3] = test system: Rattus norvegicus; assay: Anticoagulant activity in Sprague-Dawley rat assessed as change in factor 10 content in blood at 0.25 mg/kg, po after 10 days (reference value: 58.1%+/-1.8 %); assay type: functional
[4] = test system: Rattus norvegicus; assay: Anticoagulant activity in Sprague-Dawley rat assessed as change in factor 7 content in blood at 0.25 mg/kg, po after 4 days (reference value: 400%+/-33.2%); assay type: functional
[5] = test system: Rattus norvegicus; assay: Anticoagulant activity in Sprague-Dawley rat assessed as change in factor 7 content in blood at 0.025 mg/kg, po after 4 days (reference value: 400%+/-33.2%); assay type: functional
[6] = test system: Rattus norvegicus; assay: Anticoagulant activity in Sprague-Dawley rat assessed as change in prothrombin time at 0.25 mg/kg, po after 10 days (Rvb=12.9+/-0.7 sec); assay type: functional
[7] = test system: Rattus norvegicus; assay: Anticoagulant activity in Sprague-Dawley rat assessed as reduction factor 7 content in blood at 2.5 mg/kg, po after 10 days (reference value: 321.3%+/-14.7 %); assay type: functional; design: scale not given: the % may be the effect or the level left
[8] = test system: Rattus norvegicus; assay: Potentiation of warfarin-induced anticoagulant activity in Sprague-Dawley rat assessed as change in factor 7 level at 2.5 mg/kg, po after 10 days (reference value: 321.3 %+/-14.7%); assay type: functional
[9] = test system: Rattus norvegicus; assay: Anticoagulant activity in Sprague-Dawley rat assessed as change in prothrombin time at 2.5 mg/kg, po after 10 days (Rvb=12.9+/-0.7 sec); assay type: functional
[10] = test system: Rattus norvegicus; assay: Anticoagulant activity in Sprague-Dawley rat assessed as change in factor 7 content in blood at 0.25 mg/kg, po after 10 days (reference value: 321.3%+/-14.7 %); assay type: functional
[11] = test system: Rattus norvegicus; assay: Anticoagulant activity in Sprague-Dawley rat assessed as change in factor 10 content in blood at 2.5 mg/kg, po after 10 days (reference value: 58.1%+/-1.8 %); assay type: functional
[12] = test system: Rattus norvegicus; assay: Anticoagulant activity in Sprague-Dawley rat assessed as change in prothrombin time at 2.5 mg/kg, po after 4 days ([…]); assay type: functional
[13] = organism: Rattus norvegicus; assay: Cytotoxicity in Sprague-Dawley rat; assay type: organism-based; settings: in vivo
[14] = test system: Rattus norvegicus; assay: Anticoagulant activity in Sprague-Dawley rat assessed as change in factor 7 content in blood at 0.025 mg/kg, po after 10 days (reference value: 321.3%+/-14.7 %); assay type: functional
[15] = test system: Rattus norvegicus; assay: Potentiation of warfarin-induced anticoagulant activity in Sprague-Dawley rat assessed as change in prothrombin time at 2.5 mg/kg, po after 4 days (Rvb= 12.8+/-0.5 sec); assay type: functional
[16] = test system: Rattus norvegicus; assay: Anticoagulant activity in Sprague-Dawley rat assessed as change in prothrombin time at 0.025 mg/kg, po after 10 days ([…]); assay type: functional
[17] = test system: Rattus norvegicus; assay: Anticoagulant activity in Sprague-Dawley rat assessed as change in prothrombin time at 0.25 mg/kg, po after 4 days ([…]); assay type: functional
[18] = test system: Rattus norvegicus; assay: Potentiation of warfarin-induced anticoagulant activity in Sprague-Dawley rat assessed as change in factor 10 level at 2.5 mg/kg, po after 10 days (Rvb =58.1%+/-1.8%); assay type: functional
[19] = test system: Rattus norvegicus; assay: Potentiation of warfarin-induced anticoagulant activity in Sprague-Dawley rat assessed as change in factor 10 level at 2.5 mg/kg, po after 4 days (Rvb =60.6%+/-3.0%); assay type: functional
[20] = test system: Rattus norvegicus; assay: Anticoagulant activity in Sprague-Dawley rat assessed as change in factor 10 content in blood at 0.025 mg/kg, po after 4 days (reference value: 60.6%+/-3.0 %); assay type: functional
[21] = test system: Rattus norvegicus; assay: Anticoagulant activity in Sprague-Dawley rat assessed as change in factor 10 content in blood at 0.025 mg/kg, po after 10 days (reference value: 58.1%+/-1.8 %); assay type: functional
[22] = test system: Rattus norvegicus; assay: Anticoagulant activity in Sprague-Dawley rat assessed as change in factor 10 content in blood at 2.5 mg/kg, po after 4 days (reference value: 60.6%+/-3.0 %); assay type: functional
[23] = test system: Rattus norvegicus; assay: Anticoagulant activity in Sprague-Dawley rat assessed as change in prothrombin time at 0.025 mg/kg, po after 4 days (Rvb=12.8+/-0.5 sec); assay type: functional
[24] = test system: Rattus norvegicus; assay: Potentiation of warfarin-induced anticoagulant activity in Sprague-Dawley rat assessed as change in factor 7 level at 2.5 mg/kg, po after 4 days (reference value: 400 %+/-33.2%); assay type: functional
[25] = test system: Rattus norvegicus; assay: Anticoagulant activity in orally dosed Sprague-Dawley rat; assay type: functional, organism-based
[26] = test system: Rattus norvegicus; assay: Potentiation of warfarin-induced anticoagulant activity in Sprague-Dawley rat assessed as change in prothrombin time at 2.5 mg/kg, po after 10 days (Rvb= 12.9+/-0.7 sec); assay type: functional

Structure (SMILES) | Activity [1] [%] | Activity [2] [%] | Activity [3] [%] | Activity [4] [%] | Activity [5] [%] | PT [6] [s] | Activity [7] [%] | Activity [8] [%] | PT [9] [s] | Activity [10] [%] | Activity [11] [%] | PT [12] [s] | Activity [13] | Activity [14] [%] | PT [15] [s] | PT [16] [s] | PT [17] [s] | Activity [18] [%] | Activity [19] [%] | Activity [20] [%] | other results
CC(=O)Oc1c2c(c(OC(C)=O)c3ccccc13)[C@]1(C)C=C[C@]2(C)C1 | 65.3 | 370.8 | 61.2 | 351.3 | 346.8 | 11.7 | 286.8 | 35 | 11.6 | 304.7 | 61 | 11.8 | Not Active | 364 | 40.5 | 11.4 | 11.6 | 7.7 | 4.8 | 74.5 | Activity [21]: 68%; Activity [22]: 64.3%; PT [23]: 11.2 s; Activity [24]: 20.3%; Activity [25]: inactive; PT [26]: 35.4 s
CC(=O)CC(c1ccccc1)c1c(O)c2ccccc2oc1=O (stereo not drawn) [WARFARIN] | 10 |  | 14.9 | 29.5 |  | 24.4 |  |  |  | 56.2 |  |  |  |  |  |  | 37 |  |  |  | 
CC(=O)Oc1c2c(c(OC(C)=O)c3ccccc13)[C@@]1(C)C[C@]2(C)[C@]2(C)O[C@@]21C | 61 | 395.5 | 59.8 | 334.3 | 366.3 | 11.6 | 285.8 | 18.4 | 11.6 | 295.2 | 61 | 12.7 | Not Active | 350.3 | 12 | 11.6 | 11.6 | 3.6 | 58.8 | 73.3 | Activity [21]: 64.2%; Activity [22]: 61%; PT [23]: 11.4 s; Activity [24]: 264%; Activity [25]: inactive; PT [26]: 108.4 s
